How the values were obtained:
[1] = system: complement in normal human serum (NHS); rabbit erythrocytes; experiment: NHS-induced complement-mediated hemolysis of rabbit erythrocytes (alternative pathway); assay type: cell-based; settings: for inhibition of NHS-induced erythrocyte lysis, concentration dependence: NHS 1:12.5, peptide 1.31, 2.62, 5.24 μmol, Mg-EGTA, 37°C 40 min, then rabbit erythrocytes 1 × 10^8, 30 min 37°C, absorbance 412 nm; for inhibition of NHS-induced erythrocyte lysis, concentration dependence / inhibition of NHS-induced hemolysis compared to control peptide: three experiments; for inhibition of NHS-induced erythrocyte lysis at 5.24 μmol: peptide 5.24 μmol, NHS 1:12.5; for inhibition of NHS-induced hemolysis compared to control peptide: peptide 2.62 and 5.24 μmol, *p < 0.05, **p < 0.01
Procedure: Normal human serum (NHS) was collected from six healthy volunteers, and the donation procedure was approved by the Institutional Review Board (IRB) of Capital Medical University (approval number: 2016SY01). After venous blood was collected, it was clotted in serum separator tubes for 4 h at room temperature and then centrifuged at 1,000 g for 30 min to obtain the serum. The serum was divided into aliquots and stored at −80°C. To obtain normal mouse serum (NMS), blood was collected in the […] of mice under ether anesthesia and the serum was separated and stored as described above.
When rabbit erythrocytes are placed in xenogeneic serum (such as NHS or NMS), the alternative pathway of the complement system is activated, causing lysis of the rabbit erythrocytes. To evaluate the effects of the peptides on the complement activation-mediated erythrocyte lysis (involving the alternative complement pathway), NHS or NMS (1:12.5) was incubated with various concentrations of peptides (1.31, 2.62, and 5.24 μmol) in Mg-EGTA solution (5 mM MgCl2, 10 mM EGTA) at 37°C for 40 min before adding the mixture to freshly washed erythrocytes (1 × 10^8) in gelatin veronal-buffered saline (pH 7.4, containing 0.1% gelatin) for 30 min at 37°C. Lysis was stopped with cold Hanks' Balanced Salt Solution (HBSS^++) containing 10 mM ethylenediaminetetraacetic acid (EDTA). The samples were then centrifuged at 1,000 g for 10 min to obtain the supernatant, and the amount of released hemoglobin in the supernatant was determined by measuring the absorbance at 412 nm. The hemolytic activity relative to the water-induced lysis among the same number of erythrocytes was calculated.
Figure 1 Modified peptide bound to human complement C9 and inhibited C9 polymerization-induced bio-function. (A) Microscale thermophoresis assay (NanoTemper) in which biomolecular interactions were quantitated by examining the motion of the molecules along a microscopic temperature gradient induced by an infrared laser. Changes in the molecular hydration shell, charge, or size are measured using a fluorescent probe (NT-647) bound covalently to the human C9. Binding of control, modified and original peptides to human C9 were studied. Data points indicate the differences in normalized fluorescence (%) generated by peptides binding to […], and curves indicate the calculated fits. […] Error bars represent the standard error of three independent measurements. […] Lane M: standard protein markers; lane 1: blank control (C9 without Zn^2+); lane 2: positive control (C9 with Zn^2+); lane 3: 5.24 μmol original peptide; lanes 4–6, 1.31, 2.62, and 5.24 μmol modified peptide, respectively; lane 7, 5.24 μmol control peptide. (C) Normal human serum (NHS)-induced complement-mediated hemolysis was inhibited by the modified and original peptides (2.62 and 5.24 μmol) compared to the control peptide. All experiments were performed three times and data are presented as mean ± SD. *p < 0.05, **p < 0.01.

[2] = system: mouse ATDC5 cells; experiment: Peptide binding to cell surface, flow cytometry; assay type: cell-based; settings: 1 h room temperature, streptavidin-FITC; for binding to cell membrane of ATDC5 cells (flow cytometry) at 260 nmol: biotin-labeled peptide
Excerpt: The mouse ATDC5 chondrogenic cell line is an important chondrocyte model that has been widely used in the study of chondrocyte proliferation and differentiation. This cell line was used to evaluate the membrane-binding ability of the modified peptide, as articular cartilage (which contains chondrocytes) is one of the main cellular components in the joint cavity. The cells were purchased from Guangzhou Jennio Biotech Co., Ltd. (Guangzhou, China) and maintained in Dulbecco's Modified Eagle Medium (DMEM, ThermoFisher, America) supplemented with 10% fetal bovine serum (FBS, Gibco, Australia) at 37°C in a humidified atmosphere with 5% CO2. The 5th−10th passages of the cells were used in the study.
To assess the binding ability of the modified peptide to the cell membrane, the three peptides were labeled with biotin at the C-terminus. Cultured mouse ATDC5 cells were washed with phosphate-buffered saline (PBS) and incubated with various concentrations of the control, original or modified peptides (65, 130, and 260 nmol, respectively) for 1 h at room temperature. After washing twice with PBS to remove the unbound peptides, streptavidin-fluorescein isothiocyanate (FITC; eBioscience, California, USA) was added and incubated for 0.5 h at room temperature. The cells were washed and resuspended in PBS and then the binding of the peptides to the cell membrane was assessed by flow cytometry (BD Biosciences, California, USA). To further assess the retention of peptides on the surface of cells, the mouse ATDC5 cells were cultured in a 12-well culture plate which contains cell slides on the bottom. They were washed with PBS on the next day and then blocked with normal goat serum for 30 min at room temperature before incubation with various concentrations of peptides (260 nmol, 540 nmol, and 1.08 mmol). The binding of the peptides to the cell membrane was then assessed by staining with streptavidin-FITC (eBioscience). After being stained, the cells that had adhered to the cell slides were mounted using ProLong Gold Antifade reagent (ZSGB-BIO, Beijing, china) containing 4′,6-diamidino-2-phenylindole (DAPI, ThermoFisher, America) dye to stain the cell nuclei. They were then analyzed by confocal laser scanning microscopy (Leica, Germany).
Figure 3 Modified peptide non-specifically bound to the cell surface. (A) Binding of peptides to the surface of mouse ATDC5 cells measured by flow cytometry. All experiments were performed three times and data are presented as mean ± SD. n = 5, ***p < 0.001, ns: not significant (p > 0.05). (B) Binding of various concentrations of biotin-labeled peptides on the surface of mouse ATDC5 cells assessed by confocal laser scanning microscopy. Arrowheads indicate the binding of the modified peptides on the surface of mouse ATDC5 cells.

Substance	inhibition of NHS-induced erythrocyte lysis, concentration dependence [1]	inhibition of NHS-induced erythrocyte lysis at 5.24 μmol [1]	inhibition of NHS-induced hemolysis compared to control peptide [1]	binding to cell membrane of ATDC5 cells (flow cytometry) at 260 nmol ([2]; 260 nmol)	ATDC5 cells bound to peptide ([2]; C-terminally biotin-labeled peptide, 260 nmol, flow cytometry, n = 5) [%]	binding to cell surface of ATDC5 cells (flow cytometry), concentration dependence ([2]; biotin-labeled peptide 65, 130, 260 nmol)
VSMGKSLSSKVYVM [original peptide, tetradecapeptide derived from Trichinella spiralis paramyosin (Ts-pmy)]	significantly inhibited in a dose-dependent manner	greatest inhibition	inhibited	did not bind to the cell membrane		
Myr-GSSKSPSKKKKKKPG-ACP-VSMGKSLSSKVYVM [modified peptide, Ts-pmy-derived peptide modified with a membrane-targeting signal]	significantly inhibited in a dose-dependent manner	greatest inhibition	inhibited		~100	bound to the cell surface of mouse ATDC5 cells in a dose-dependent manner
GKMSVMSVYKSVLS [control peptide, reference compound]	no difference in the erythrocyte lysis among the three concentrations			did not bind to the cell membrane		

Reference: PMC7785802, “Therapeutic Efficacy of a Trichinella Spiralis Paramyosin-Derived Peptide Modified With a Membrane-Targeting Signal in Mice With Antigen-Induced Arthritis” (Frontiers in Microbiology, 2020)
